How the values were obtained:
db/db mice [1] = experiment: Intraperitoneal glucose tolerance test (IPGTT) in db/db mice; type: in vivo
Protocol: Experiment 1: mice (n=25) were fed high-fat (>40% energy from fat), isocaloric, isonitrogenous diets containing 0, 100, 200, 400, and 800 mg of a racemic (±) ABA mixture/kg diet for 36 days (Table 1) (Sigma). These doses were chosen based on the standard concentrations of TZDs utilized in the treatment of NIDDM. The mice were weighed and their food intake was recorded daily. On day 36 of the study fasted mice (12 h) were bled through the caudal vein and fasting blood glucose concentrations were determined. To investigate the ability of ABA to normalize glucose concentrations, an intraperitoneal glucose tolerance test (IPGTT) was performed on day 36 on the fasted mice. Briefly, mice were bled at 0, 10, 25, and 45 minutes following the administration of glucose (2 g/kg) for measurement of plasma glucose levels. […] Weights were recorded for WAT, interscapular brown adipose tissue (BAT), and liver.
Experiment 2: The ABA dose utilized (100 mg ABA/kg) was based on the results obtained from the IPGTT of the ABA titration study (i.e., Experiment 1). Mice in experiment 2 were fed high-fat diets containing 0 or 100 mg ABA/kg for 36 days. Their body weights and food intake was recorded daily, and blood was collected on day 36 of the study during an IPGTT. This IPGTT included one additional 100 minutes time point. […] Weights were recorded for abdominal WAT, BAT, and liver.

[2] = tested on: PPAR γ and PPAR γ-responsive genes in WAT; experiment: Quantitative real-time RT-PCR of white adipose tissue (WAT) of db/db mice; type: in vivo
Excerpt: Complementary DNA (cDNA) concentrations for β-actin, PPAR γ, PPAR α, PPAR δ, adiponectin, CD36, aP2, and TNF-α were examined by real-time quantitative PCR using and iCycler IQ System and the iQ SYBR green supermix (Bio-Rad). SYBR green I is a general double-stranded DNA intercalating dye and, therefore, may detect nonspecific products and primer/dimers in addition to the amplicon of interest. In order to determine the number of products produced during the real-time PCR, a melting curve analysis was performed on each product. Real-time PCR was used to measure the starting amount of nucleic acid of each unknown sample of cDNA on the same 96-well plate. Results are presented as starting quantity of cDNA (picograms) per microgram of mRNA.

CD4+ T cells = experiment: CFSE flow cytometry proliferation assay, Concanavalin A-stimulated splenocytes, CD4+ T cells; type: cell-based, mice; conditions: 100 mg ABA/kg diet; first 2 generations
Protocol: Single cell suspensions were prepared from the spleen by gently crushing the spleens excised during the necropsy procedure between the frosted ends of microscope glass slides previously autoclaved. Tissue debris were removed by settling, erythrocytes were eliminated by hypotonic lysis and cells finally resuspended in complete RPMI (cRPMI, 10% fetal bovine serum (Hyclone, Logan, Utah), 25 mM HEPES buffer (Sigma, St. Louis, Mo.), 100 units/ml penicillin (Sigma), […] streptomycin (Sigma), 1 mM sodium pyruvate (Sigma), 1 mM nonessential aminoacids (Sigma), and 2 mM essential amino acids (Mediatech), and enumerated with a Coulter Z1 Single Particle Counter (Beckman Coulter, Miami, Fla.). […]
Splenocytes at 10^6 cells/ml were seeded in 96-well, round-bottom microtiter plates and incubated incomplete RPMI with or without Concanavalin A (Sigma) at 2.5 μg/ml. […] Following 2 washes in Fluorescence activated cell sorting (FACS) buffer, cells were incubated with streptavidin-PeCy5 (Pharmingen, San Diego, Calif.) for the biotinylated anti-mouse CD4 antibody. Cells were analyzed by 3-color flow cytometry (CFSE, phycoerythrin and PeCy5) in a FACScalibur instrument (Becton Dickinson). Ten thousand events were acquired, and data were analyzed using the Cell Quest Pro™ software (Becton Dickinson). Proliferation was assessed by the decrease in fluorescent intensity of CFSE staining. […]

Total lymphocytes = experiment: Lymphocyte blastogenesis test (LBT); type: cell-based, mice; conditions: 100 mg ABA/kg diet
Protocol: Single cell suspensions were prepared from the spleen by gently crushing the spleens excised during the necropsy procedure between the frosted ends of microscope glass slides previously autoclaved. Tissue debris were removed by settling, erythrocytes were eliminated by hypotonic lysis and cells finally resuspended in complete RPMI (cRPMI, 10% fetal bovine serum (Hyclone, Logan, Utah), 25 mM HEPES buffer (Sigma, St. Louis, Mo.), 100 units/ml penicillin (Sigma), […] streptomycin (Sigma), 1 mM sodium pyruvate (Sigma), 1 mM nonessential aminoacids (Sigma), and 2 mM essential amino acids (Mediatech), and enumerated with a Coulter Z1 Single Particle Counter (Beckman Coulter, Miami, Fla.).
Wells of 96-well, round bottom microtiter plates were seeded with 2×10^5 splenocytes in a total volume of […] per well. Cells were cultured in cRPMI media with or without 2.5 μg/ml of Concanavalin A (Sigma) for 4 days. On day 4, […] of methyl-[^3Thymidine] was added to each well, and cells we incubate for 20 additional hours. Well contents were harvested onto glass fiber filters using cell harvester, and incorporated radioactivity measured by liquid scintillation counting. Samples were run in triplicate for each animal and ex-vivo treatment. Stimulation indices were calculated by dividing counts per minute of mitogen-stimulated wells by counts per minute of unstimulated wells.

db/db mice [3] = experiment: Fasting glucose, plasma MCP-1, plasma and liver triglycerides, hepatic steatosis, body weight in db/db mice (Example 9); type: in vivo
Protocol: Hepatic Steatosis, plasma MCP-1 and liver triglyceride content Liver specimens were excised and immediately fixed in 10% phosphate buffered neutral formalin, embedded in paraffin, cut at thicknesses of 5 microns and stained with hematoxylin and eosin (H&E) for histological examination. For hepatic triglyceride assessment, livers fragments (50-100 mg) were extracted for 16 hours at 4° C. with 4 ml CHCl/methanol (2:1, vol/vol). Two milliliters of 0.6% NaCl were then added to the extract, and the mixture was centrifuged at 2,000×g for 20 minutes. Lipids were isolated by nitrogen evaporation, dissolved in 100 μl isopropanol, and quantified with a triglyceride assay kit (Stanbio). The Triglyceride Assay Kit (Sigma) and Ready-set-go MCP-1 ELISA (ebioscience) were used to quantify plasma TGs and MCP-1, respectively, according to manufacturer's instructions.

[4] = 100 mg ABA/kg diet, 36 days, P<0.01
[5] = db/db mice, 100 mg/kg diet, 36 days, vs control high-fat diet

Question: `CC1=CC(=O)CC(C)(C)C1(O)/C=C/C(C)=C\C(=O)O` (racemic) [ABA, abscisic acid] was tested. Which “response in glucose homeostasis during the IPGTT, dose comparison” value (db/db mice [1]; Experiment 1, 100 mg ABA/kg dose) did it give?
Answer: most favorable response

Question: What about the “response to the IPGTT” value (db/db mice [1]; Experiment 1, day 36) of the same molecule?
Answer: improved response to the IPGTT

Question: And the “glucose levels during IPGTT versus control” value (db/db mice [1]; Experiment 2, 100 mg ABA/kg diet)?
Answer: significantly lower at every time point up to 100 minutes

Question: And the “mRNA expression of PPAR α or PPAR δ” value ([2]; 100 mg ABA/kg diet, 36 days)?
Answer: no significant differences

Question: And the “WAT expression of CD36 mRNA” value [2, 4]?
Answer: significant increase

Question: And the “WAT expression of PPAR γ mRNA” value [2, 4]?
Answer: significant increase

Question: And the “WAT expression of aP2 mRNA” value ([2]; 100 mg ABA/kg diet, 36 days, P<0.02)?
Answer: significant increase

Question: And the “WAT expression of adiponectin mRNA” value ([2]; 100 mg ABA/kg diet, 36 days, P<0.05)?
Answer: significant increase

Question: What about the “TNF-α mRNA expression in WAT” value ([2]; ABA-fed db/db mice, P<0.05) of the same molecule?
Answer: down-regulated

Question: What about the “CD4+ T cells RPI1” value (CD4+ T cells) of the same molecule?
Answer: 17.72

Question: And the “LBT Total lymphocytes SI” value (Total lymphocytes)?
Answer: 9.22

Question: What about the “MCP-1 protein concentrations in plasma” value (db/db mice [3]; ABA-fed db/db mice) of the same molecule?
Answer: significantly decreased

Question: What about the “decrease in plasma MCP-1” value (db/db mice [3]; ABA-fed db/db mice) of the same molecule?
Answer: 4 fold

Question: What about the “hepatic steatosis, liver histology” value (db/db mice [3]; ABA-fed db/db mice) of the same molecule?
Answer: less severe

Question: And the “fasting blood glucose (FBG)” value (db/db mice [3]; [5])?
Answer: significantly lower

Question: And the “plasma TGs concentrations” value (db/db mice [3]; [5])?
Answer: significantly lower

Question: What about the “food intake or body weights” value (db/db mice [3]; db/db mice, throughout the experiment) of the same molecule?
Answer: did not alter food intake or body weights

Question: What about the “amount of liver triglycerides” value (db/db mice [3]; vs control diet) of the same molecule?
Answer: significantly lower
